# pIC50: −log10 of the molar value. Structures can show the parent of a compound that is named as a salt.
# Tests used:
# [1] = target: phospholipase A2 obtained from human leucocytes; assay: In vitro test to determine the inhibition of phospholipase A2 obtained from human leucocytes; type: biochemical; conditions: under the described test conditions
# Experimental: Neutrophilic polymorpho-nuclear human leucocytes are isolated from "Buffy coats" by multi-step fractional sedimentation and are deep-frozen. The phospholipase A2 is extracted from the cell suspension by homogenisation with the addition of ice-cold 0.36N H2 SO4 in 2N NaCl and the supernatant obtained after centrifugation at 10,000×g is dialysed against sodium acetate buffer pH 4.5.
# In order to determine the enzyme activity, enzyme (10-30 μg of protein) is incubated at 37° for 1 hour in 0.1M tris/HCl buffer pH 7 with the addition of 1 mmol of CaCl2 and substrate consisting of phospholipids (2 μm) of Escherichia coli radioactively labelled biosynthetically with ^14 C-oleic acid. The reaction is stopped by the addition of Dole reagent (isopropanol/heptane/1N H2 SO4 40:10:1, v/v) and the ^14 C-oleic acid freed selectively by phospholipase A2 is extracted. […]
# In order to detect an inhibitory action of test substances on phospholipase A2, the test substances are added to the incubation mixture in the form of solutions in water, dimethyl sulfoxide (final concentration in the batch up to 5%, v/v) or ethanol (final concentration in the batch up to 2.5%, v/v). […] The IC50 is determined graphically by plotting the percentage inhibition on the ordinate against the log of the concentration (μm) on the abscissa.
# [2] = target: phospholipase C obtained from human thrombocytes; assay: In vitro test to determine the inhibition of phospholipase C obtained from human thrombocytes; type: biochemical; conditions: under the described test conditions
# Experimental: Human thrombocytes are obtained from "Buffy coats" by fractional centrifugation and are then deep-frozen. The phospholipase C is freed by ultrasound treatment of the cell suspension and after ultracentrifugation (150,000×g for 1 hour) is present in soluble form in the supernatant.
# In order to determine the enzyme activity, enzyme (20-100 μg of protein) is incubated at 37° for 5 minutes in 0.025M tris/maleate buffer pH 6 with the addition of 0.2 mmol of CaCl2 and 0.02 mmol of radioactively labelled substrate, phosphatidyl-[^14 C]-inositol. The reaction is stopped by shaking with CHCl3 /CH3 OH 2:1 (v/v), in the course of which unused substrate is extracted into the organic phase, while the reaction product, ^14 C-inositol phosphate, remains in the aqueous phase and can be measured by radiometry of an aliquot.
# In order to detect an inhibitory action of test substances on phospholipase C, the test substances are added to the incubation mixture in the form of solutions in water, dimethyl sulfoxide (final concentration in the batch up to 5%, v/v) or ethanol (final concentration in the batch up to 2.5%, v/v). […] The IC50 is determined graphically by plotting the percentage inhibition on the ordinate against the log of the concentration (μm) on the abscissa.
compound,measurement,setting,value
"CCN(CC)CCCC(C)Nc1c2ccc(Cl)cc2nc2ccc(OC)cc12 (centres unmarked) [MEPACRINE, quinacrin hydrochloride]",pIC50,[1],2.80
same,pIC50,[2],4.70

# From patent US5149717A, “Alkanophenones useful for treating allergies” (Ciba-Geigy Corporation, priority 1988, dated 1992)
